Assay results: article PMC11083775, “Synthesis, In Silico and Kinetics Evaluation of N-(β-D-glucopyranosyl)-2-arylimidazole-4(5)-carboxamides and N-(β-D-glucopyranosyl)-4(5)-arylimidazole-2-carboxamides as Glycogen Phosphorylase Inhibitors” (International Journal of Molecular Sciences, 2024)

Target: T1, rabbit muscle glycogen phosphorylase b (rmGPb) (Oryctolagus cuniculus, UniProt P00489)
T1 sequence (P00489 1-843): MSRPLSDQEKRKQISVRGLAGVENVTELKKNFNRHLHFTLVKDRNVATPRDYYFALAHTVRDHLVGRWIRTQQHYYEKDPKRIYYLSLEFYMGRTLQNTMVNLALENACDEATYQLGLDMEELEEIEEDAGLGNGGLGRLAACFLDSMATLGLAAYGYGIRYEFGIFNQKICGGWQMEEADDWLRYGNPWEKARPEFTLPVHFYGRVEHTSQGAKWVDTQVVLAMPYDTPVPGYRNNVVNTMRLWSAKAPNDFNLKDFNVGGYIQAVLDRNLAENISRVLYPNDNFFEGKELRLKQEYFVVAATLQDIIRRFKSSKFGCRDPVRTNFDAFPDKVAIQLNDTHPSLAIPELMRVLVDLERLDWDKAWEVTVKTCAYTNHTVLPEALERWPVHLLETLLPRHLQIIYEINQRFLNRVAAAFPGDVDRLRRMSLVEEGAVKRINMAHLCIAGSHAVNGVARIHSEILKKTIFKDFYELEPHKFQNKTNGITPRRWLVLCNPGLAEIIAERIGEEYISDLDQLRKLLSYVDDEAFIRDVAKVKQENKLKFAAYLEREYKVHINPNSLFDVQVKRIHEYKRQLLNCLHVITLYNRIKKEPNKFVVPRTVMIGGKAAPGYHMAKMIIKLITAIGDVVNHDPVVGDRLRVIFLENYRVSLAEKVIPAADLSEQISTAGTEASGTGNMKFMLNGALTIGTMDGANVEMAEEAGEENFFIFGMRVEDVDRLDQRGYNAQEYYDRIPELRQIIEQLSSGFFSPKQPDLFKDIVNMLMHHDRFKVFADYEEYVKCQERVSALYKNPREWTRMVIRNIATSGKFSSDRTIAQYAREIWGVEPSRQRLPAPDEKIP
Assay: Kinetics of rabbit muscle GPb inhibition, assayed in the direction of glycogen synthesis
Type: biochemical
Details: 10 μg/mL enzyme, glucose-1-phosphate 4–40 mM, 1% glycogen, 1 mM AMP, at least three independent experiments, ± SD, read-out: Inhibition constant (Ki)
Protocol: Inhibitory constants (Ki) were determined for rabbit muscle glycogen phosphorylase. Enzyme activity was assayed in the direction of glycogen synthesis, as previously published. The experiments were performed using the rabbit muscle phosphorylase b (dephosphorylated, GPb) isoform. Kinetic data for the inhibition of GPb by the compounds were obtained in the presence of 10 μg/mL of the enzyme, varying the concentrations of α-D-glucose-1-phosphate (4–40 mM) and using constant concentrations (1%) of glycogen and AMP (1 mM). The enzymatic activities were presented in the form of a double reciprocal plot (Lineweaver–Burk). The plots were analysed using a non-linear data analysis program. The inhibitor constants (Ki) were determined using secondary plots, replotting the slopes from the Lineweaver–Burk plot against the inhibitor concentrations. The means of the standard errors for all calculated kinetic parameters averaged to less than 10% [40].

Row | Compound | Ki [µM]
1 | O=C(N[C@@H]1O[C@H](CO)[C@@H](O)[C@H](O)[C@H]1O)c1cnc(-c2ccccc2)[nH]1 [Compound 1a, N-(β-D-Glucopyranosyl)-2-phenyl-1H-imidazole-4(5)-carboxamide] | 10.4 ± 6.2
2 | O=C(N[C@@H]1O[C@H](CO)[C@@H](O)[C@H](O)[C@H]1O)c1cnc(-c2cccc3ccccc23)[nH]1 [Compound 1b, N-(β-D-Glucopyranosyl)-2-(1-naphthyl)-1H-imidazole-4(5)-carboxamide] | 16.2 ± 8.1
3 | O=C(N[C@@H]1O[C@H](CO)[C@@H](O)[C@H](O)[C@H]1O)c1cnc(-c2ccc3ccccc3c2)[nH]1 [Compound 1c, N-(β-D-Glucopyranosyl)-2-(2-naphthyl)-1H-imidazole-4(5)-carboxamide] | 12.8 ± 3
4 | O=C(N[C@@H]1O[C@H](CO)[C@@H](O)[C@H](O)[C@H]1O)c1ncc(-c2ccccc2)[nH]1 [Compound 2a, N-(β-D-Glucopyranosyl)-4(5)-phenyl-1H-imidazole-2-carboxamide] | 67.4 ± 9.7
5 | O=C(N[C@@H]1O[C@H](CO)[C@@H](O)[C@H](O)[C@H]1O)c1ncc(-c2cccc3ccccc23)[nH]1 [Compound 2b, N-(β-D-Glucopyranosyl)-4(5)-(1-naphthyl)-1H-imidazole-2-carboxamide] | 4.1 ± 0.8
6 | O=C(N[C@@H]1O[C@H](CO)[C@@H](O)[C@H](O)[C@H]1O)c1ncc(-c2ccc3ccccc3c2)[nH]1 [Compound 2c, N-(β-D-Glucopyranosyl)-4(5)-(2-naphthyl)-1H-imidazole-2-carboxamide] | 3.3 ± 0.1

Target: T1, rabbit muscle glycogen phosphorylase b (rmGPb)
Assay: not given
Details: cited from earlier work

Row | Compound | Ki
7 | O=C(N[C@@H]1O[C@H](CO)[C@@H](O)[C@H](O)[C@H]1O)c1nc(-c2ccc3ccccc3c2)no1 [VIIIc] | no inh.
8 | O=C(N[C@@H]1O[C@H](CO)[C@@H](O)[C@H](O)[C@H]1O)c1noc(-c2ccc3ccccc3c2)n1 [VIIc] | no inh.
